Measured values from patent US9499486B2, “Kinase inhibitor” (RESPIVERT LIMITED, priority 2014, dated 2016).
“And” between values parts separate entries of the source, which are not always exact repeats. Equal entries are not always repeated. Structures can show the parent of a compound that is named as a salt. Where two headings read alike, the source gives them in different places.

What was measured:
[1] = Solubility in fasted-state simulated colonic fluid (FaSSCoF); format: physicochemical; settings: pH 6.5, 25° C., 24 h; for solubility thermodynamic at 24 h: fasted-state simulated colonic fluid (FaSSCoF), 25 °C, pH 6.5, fassgf or other biorelevant, thermodynamic from solid
Experimental: The solubility of the compound of the invention in FaSSCoF at pH 6.5 is determined using a modification of a previously-reported procedure (Vertzoni, M., et al. Pharm. Res. 2010, 27, 2187-2196). In place of the bile salt extract employed in the original procedure (which extract is no longer available), the modified procedure uses a mixture of sodium taurochlorate (0.15 g), glycocholic acid (0.15 g), ursodeoxycholic acid (0.05 g), cholic acid (0.05 g), and glycodeoxycholic acid (0.05 g). These five bile acids are ground together with a mortar and pestle to produce a fine white powder that is incorporated into the FaSSCoF, as outlined below.
FaSSCoF medium: Tris(hydroxymethyl)aminomethane (Tris; 0.275 g) and maleic acid (0.44 g) are dissolved in water (35 mL) to give a solution whose pH is adjusted to 6.5 by treatment with 0.5M NaOH (ca. 12 mL). The solution is then made up to 50 mL with water. A portion of this Tris/maleate buffer solution (ca. 25 mL) is added to a 0.5 L round-bottomed flask, before being treated with 0.00565 g of the bile acid mixture described above. Solutions of phosphatidylcholine (0.0111 g) in DCM (0.15 mL) and palmitic acid (0.0013 g) in DCM (0.15 mL) are added, then the organic solvent is evaporated off under reduced pressure at 40° C. until a clear solution, with no perceptible DCM odour, is achieved. The volume of the evaporated solution is adjusted to 50 mL by addition of the remainder of Tris/maleate buffer, then BSA (0.115 g) is added, before being dissolved by gentle agitation.
Solubility Determination: Test compounds are suspended in the pH 6.5 FaSSCoF medium to give a maximum final concentration of 2-10 mg/mL. The suspensions are equilibrated at 25° C. for 24 h, before being filtered through a glass fibre C filter. The filtrates are then diluted as appropriate for injection and quantification by HPLC with reference to a standard. Different volumes of the standard, diluted and undiluted sample solutions are injected and the solubilities are calculated using the peak areas determined by integration of the peak found at the same retention time as the principal peak in the standard injection.

[2] = Stability of pharmaceutical formulations (1 mg/mL solutions); format: physicochemical; settings: for Original Purity: 1 mg/mL in pH 7.2 phosphate buffer, 4.5% mannitol, 3% polyoxyl 40 stearate, before storage; for Osmolality / pH: 1 mg/mL stock solution; for Purity at week n = 1 / Purity at week n = 2 / Purity at week n = 4: 1 mg/mL solution
Experimental: The samples were sonicated to achieve clear solutions having the following properties: Osmolality (mOsm/kg): 310 (Na), 314 (HCl); pH: 7.00 (Na), 7.05 (HCl). 0.5 mL of the stock solutions were diluted to 1 mL with 20% DMSO in water & injected for purity analysis by HPLC. The remaining stock solutions were then split into aliquots of 0.5 mL in HPLC vials, and stored at various conditions in duplicate. Samples were stored at 5 and 25° C., before being analysed by HPLC at 1, 2 and 4 weeks. Separate samples were stored at 40° C. and analysed at 4 weeks.

[3] = Systemic pharmacokinetics and total colon tissue distribution after single oral administration; format: in vivo, mouse; settings: male, C57BL/6, mouse, mice, oral 5 mg/kg, compound 1 measured
Experimental: Studies were conducted by Sai Life Sciences (Hinjewadi, Pune, India) to investigate the systemic pharmacokinetics and total colon tissue distribution of the compound of the invention. In particular, pharmacokinetic studies were carried out in male C57BL/6 mice following a single oral administration of the compound.

[4] = system: Jurkat cells; assay: Cell cytotoxicity assay (assay r); format: cell-based, human; settings: 24 hours
Experimental: 1×10^5 Jurkat cells (immortalised human T lymphocytes) are added to the appropriate number of wells of a 96 well plate in 100 μL of media (RPMI supplemented with 10% foetal bovine serum). 1 μL of DMSO control (final concentration 1.0% v/v) or test compound (final concentration 20, 5 or 1 μg/mL) is added to the wells and incubated at 37° C., 5% CO2. After 24 hours, the plate is centrifuged at 1200 rpm for 3 minutes and the supernatant discarded. Cells are then resuspended in 150 μL (final concentration 7.5 μg/mL) of propidium iodide (PI) in PBS and incubated at 37° C., 5% CO2 for 15 minutes. After 15 minutes, cells are analysed by flow cytometry (BD accuri) using the FL3 window. The % viability is calculated as the % of cells that are PI negative in the test wells normalised to the DMSO control.

[5] = system: non-mutant kinases; format: binding; settings: for number of individual kinase hits, S(1): % Ctrl <1; for number of individual kinase hits, S(10): % Ctrl <10; for number of individual kinase hits, S(35): % Ctrl <35
Excerpt: These assays may be conducted by DiscoverX (formerly Ambit; San Diego, Calif.).

[6] = read-out: pH 6.5 FaSSCoF Solubility Run 1
[7] = listed as Example 1, sodium salt
[8] = stored at 5 ° C., listed as Example 1, sodium salt
[9] = stored at 25 ° C., listed as Example 1, sodium salt
[10] = plasma, read-out: Mean plasma concentration
[11] = total colon, read-out: Mean total colon level
[12] = listed as Example 1, hydrochloride salt
[13] = stored at 5 ° C., listed as Example 1, hydrochloride salt
[14] = stored at 25 ° C., listed as Example 1, hydrochloride salt

`C#Cc1cc(Nc2nccc(Oc3ccc(NC(=O)Nc4cc(C(C)(C)C)nn4-c4ccc(C)cc4)c4ccccc34)n2)cc(C(=O)NCCOCCOCCOC)c1` [Reference Compound A, 3-((4-((4-(3-(3-(tert-butyl)-1-(p-tolyl)-1H-pyrazol-5-yl)ureido)naphthalen-1-yl)oxy)pyrimidin-2-yl)amino)-5-ethynyl-N-(2-(2-(2-methoxyethoxy)ethoxy)ethyl)benzamide, reference compound] gave a solubility thermodynamic at 24 h [1, 6] of under 1 µg/mL and a solubility thermodynamic at 24 h ([1]; read-out: pH 6.5 FaSSCoF Solubility Run 2) of under 1 µg/mL.

In the case of `COc1cc(Nc2cc(Oc3ccc(NC(=O)Nc4cc(C(C)(C)C)cc(NS(C)(=O)=O)c4OC)c4ccccc34)ccn2)ccc1C(=O)O` [1 (sodium salt), 4-((4-((4-(3-(5-(tert-Butyl)-2-methoxy-3-(methylsulfonamido)phenyl)ureido)naphthalen-1-yl)oxy)pyridin-2-yl)amino)-2-methoxybenzoic acid], the solubility thermodynamic at 24 h [1, 6] is reported as 31 µg/mL, the “pH 6.5 FaSSCoF Solubility Run 2” value [1] is reported as 0.032 mg/mL and the “pH 6.5 FaSSCoF Solubility Run 3” value [1] is reported as 0.020 mg/mL. For the same compound, the “pH 6.5 FaSSCoF Solubility Run 4” value [1] was 0.025 mg/mL, the “Original Purity” value [2, 7] was 98.6% and 98.5% and the Osmolality [2, 7] was 310 mOsm/kg. The pH [2, 7] was 7.00, the “Purity at week n = 1” value [2, 8] was 98.2% and 98.4% and the “Purity at week n = 2” value [2, 8] was 98.4% and 98.5%. For the same compound, the “Purity at week n = 4” value [2, 8] was 98.3% and 98.4%, the “Purity at week n = 1” value [2, 9] was 98.4% and 98.5% and the “Purity at week n = 2” value [2, 9] was 98.1%. For the same compound, the “Purity at week n = 4” value [2, 9] was 97.6%, the “Purity at week n = 4” value ([2]; stored at 40 ° C., listed as Example 1, sodium salt) was 76.0% and 73.7% and the concentration at 0.5 h [3, 10] was 44.9 ng/mL. It also gave a concentration at 1 h [3, 10] of 49.2 ng/mL, a concentration at 2 h [3, 10] of 13 ng/mL and a concentration at 4 h [3, 10] of 5.2 ng/mL. It also gave a concentration at 6 h [3, 10] of 1.9 ng/mL, a concentration at 8 h [3, 10] of 0.6 ng/mL and a concentration at 12 h [3, 10] of 5.3 ng/mL. It also gave a concentration at 24 h [3, 10] of 0 ng/mL, a concentration at 0.5 h [3, 11] of 4.3 ng/g and a concentration at 1 h [3, 11] of 9.3 ng/g. For the same compound, the concentration at 2 h [3, 11] was 52.4 ng/g, the concentration at 4 h [3, 11] was 10400 ng/g and the concentration at 6 h [3, 11] was 4050 ng/g. For the same compound, the concentration at 8 h [3, 11] was 12900 ng/g, the concentration at 12 h [3, 11] was 535 ng/g and the concentration at 24 h [3, 11] was 41.4 ng/g.

For `COc1cc(Nc2cc(Oc3ccc(NC(=O)Nc4cc(C(C)(C)C)cc(NS(C)(=O)=O)c4OC)c4ccccc34)ccn2)ccc1C(=O)O` [1 (hydrochloride salt), 4-((4-((4-(3-(5-(tert-Butyl)-2-methoxy-3-(methylsulfonamido)phenyl)ureido)naphthalen-1-yl)oxy)pyridin-2-yl)amino)-2-methoxybenzoic acid], the solubility thermodynamic at 24 h [1, 6] was 16 µg/mL, the “pH 6.5 FaSSCoF Solubility Run 2” value [1] was 0.015 mg/mL and the “Original Purity” value [2, 12] was 98.1%. For the same compound, the Osmolality [2, 12] was 314 mOsm/kg, the pH [2, 12] was 7.05 and the “Purity at week n = 1” value [2, 13] was 98.2%. The “Purity at week n = 2” value [2, 13] was 98.1% and 98.0%, the “Purity at week n = 4” value [2, 13] was 97.9% and 98.0% and the “Purity at week n = 1” value [2, 14] was 98.0%. For the same compound, the “Purity at week n = 2” value [2, 14] was 97.7% and 97.6%, the “Purity at week n = 4” value [2, 14] was 97.2% and 97.4% and the “Purity at week n = 4” value ([2]; stored at 40 ° C., listed as Example 1, hydrochloride salt) was 79.2% and 80.4%.

For `COCC(=O)Nc1cc(Oc2ccc(NC(=O)Nc3cc(C(C)(C)C)nn3-c3ccc(C)cc3)c3ccccc23)ccn1` [Reference Compound, reference compound], the “% Viability at 1 μg/mL” value ([4]; 1 μg/mL) was 23.5%, the “% Viability at 5 μg/mL” value ([4]; 5 μg/mL) was 18.9% and the “% Viability at 20 μg/mL” value ([4]; 20 μg/mL) was 17.3%. The “number of individual kinase hits, S(1)” value ([5]; 50 nM) was 7, the “number of individual kinase hits, S(10)” value ([5]; 50 nM) was 32 and the “number of individual kinase hits, S(35)” value ([5]; 50 nM) was 67. The “number of individual kinase hits, S(1)” value ([5]; 500 nM) was 45, the “number of individual kinase hits, S(10)” value ([5]; 500 nM) was 105 and the “number of individual kinase hits, S(35)” value ([5]; 500 nM) was 143.
